From patent publication US20230057984A1, “NORMALIZATION OF CULTURE OF CORNEAL ENDOTHELIAL CELLS” (KYOTO PREFECTURAL PUBLIC UNIVERSITY CORPORATION, priority 2011, published 2023)

Tested on: Cynomolgus monkey corneal endothelial cells
Assay: Culture of monkey corneal endothelial cells with SB431542, cell form by phase-contrast microscope (Example 2)
Assay type: cell-based
Conditions: primate CEC primary culture, base culture medium with 1 μmol/l SB431542; control showed fibroblast phenotype
Description: • Cynomolgus monkey corneal endothelial cells (MCEC; source of supply and culturing method): the MCECs were cultured by the improved-type protocol described previously [Koizumi N, et al. (2007) Invest Ophthalmol Vis Sci 48: 4519-4526], [Li W, et al. (2007) Invest Ophthalmol Vis Sci 48: 614-620]. Briefly speaking, eyeballs of cynomolgus monkeys, which were humanely killed for another purpose, were purchased (Nissei Bilis Co., Ltd., Ohtsu, Japan and Keari Co., Ltd., Wakayama, Japan) (the method is described above). The Descemet's membrane including corneal endothelial cells were exfoliated, and the corneal endothelial cells were mechanically exfoliated together with basement membranes, followed by treatment using dispase or collagenase (ROCHE catalog number: 10 103 586 001) and then primary culture. Typically, treatment was performed using 1 mg/mL collagenase A (Roche Applied Science, Penzberg, Germany) at 37° C. for 2 hours. For the culture medium, DMEM (INVITROGEN catalog number 12320) was used with 10% FBS (BIOWEST, catalog number: S1820-500) and 2 ng/ml basic FGF (INVITROGEN, catalog number: 13256-029) added thereto. […] In addition, after the cells were fixed, immunostaining was performed using ZO-1, Na^+/K^+-ATPase as a function-associated marker, followed by observation through a fluorescence microscope. […]

For `NC(=O)c1ccc(-c2nc(-c3ccc4c(c3)OCO4)c(-c3ccccn3)[nH]2)cc1` [SB431542], the “cell form in phase difference images” value was “a true shape of a polygonal cell and a single layer of a contact inhibition type”.
